Here are results for five molecules from patent US7582760B2, “Benzimidazolone and dihydroindolone derivatives and uses thereof” (Roche Palo Alto LLC, priority 2005, dated 2009).

Series [1] addresses T1, recombinant human 5-HT6 receptor (Homo sapiens, UniProt P50406).
T1 construct: expressed in transfected cells; membranes
Put plainly: Radioligand binding, competition for [3H]LSD in HEK293 cell membranes. The conditions noted are these: receptor not printed for this value in the sentence; radioligand binding of Example 13. As to the method: (§1) The binding activity of compounds of this invention in vitro was determined as follows. Duplicate determinations of 5-HT6 ligand affinity were made by competing for binding of [^3H]LSD in cell membranes derived from HEK293 cells stably expressing recombinant human 5-HT6 receptor. Duplicate determinations of 5-HT2A ligand affinity were made by competing for binding of [^3H]Ketanserin (3-(2-(4-(4-fluorobenzoyl)piperidinol)ethyl)-2,4(1H,3H)-quinazolinedione) in cell membranes derived from CHO-K^1 cells stably expressing recombinant human 5-HT2A receptor. Membranes were prepared from HEK 293 cell lines by the method described by Monsma et al., Molecular Pharmacology, Vol. 43 pp. 320-327 (1993), and from CHO-K1 cell lines as described by Bonhaus et al., Br J. Pharmacol. June; 115(4):622-8 (1995).
(§2) For estimation of affinity at the 5-HT6 receptor, all determinations were made in assay buffer containing 50 mM Tris-HCl, 10 mM MgSO4, 0.5 mM EDTA, 1 mM ascorbic acid, pH 7.4 at 37° C., in a 250 microliter reaction volume. […]
(§3) Assay tubes containing [^3H] […] LSD or [^3H]Ketanserin were determined as radioactive counts per minute using Packard TopCount.
(§4) Displacement of [^3H]LSD or [^3H]Ketanserin from the binding sites was quantified by fitting concentration-binding data to a 4-parameter logistic equation: […]

Series [2] has as its target T2, recombinant human 5-HT2A receptor (Homo sapiens, UniProt P28223).
T2 construct: expressed in transfected cells; membranes
Kind of series: Radioligand binding, competition for [3H]Ketanserin in CHO-K1 cell membranes. Particulars: [3H]Ketanserin displacement, read-out: pKi for the 5-HT2A receptor (converted). On the procedure: as §1, §2, §3, §4

The term melting point denotes the temperature, or range, at which the solid turns liquid.

Counter-ions that a name gives are not always drawn.

T2 sequence (P28223 whole entry): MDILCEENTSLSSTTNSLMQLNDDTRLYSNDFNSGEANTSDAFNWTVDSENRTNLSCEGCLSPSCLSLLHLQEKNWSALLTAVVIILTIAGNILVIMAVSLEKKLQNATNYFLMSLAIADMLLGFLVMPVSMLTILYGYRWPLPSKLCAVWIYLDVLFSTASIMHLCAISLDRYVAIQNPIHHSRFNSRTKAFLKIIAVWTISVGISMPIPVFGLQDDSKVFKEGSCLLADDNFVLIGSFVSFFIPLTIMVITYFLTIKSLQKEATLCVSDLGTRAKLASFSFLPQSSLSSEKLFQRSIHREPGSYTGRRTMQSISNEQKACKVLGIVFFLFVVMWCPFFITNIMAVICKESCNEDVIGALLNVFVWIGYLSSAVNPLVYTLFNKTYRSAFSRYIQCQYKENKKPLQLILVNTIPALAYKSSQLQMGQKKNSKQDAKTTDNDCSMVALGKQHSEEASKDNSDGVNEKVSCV
T1 sequence (P50406 whole entry): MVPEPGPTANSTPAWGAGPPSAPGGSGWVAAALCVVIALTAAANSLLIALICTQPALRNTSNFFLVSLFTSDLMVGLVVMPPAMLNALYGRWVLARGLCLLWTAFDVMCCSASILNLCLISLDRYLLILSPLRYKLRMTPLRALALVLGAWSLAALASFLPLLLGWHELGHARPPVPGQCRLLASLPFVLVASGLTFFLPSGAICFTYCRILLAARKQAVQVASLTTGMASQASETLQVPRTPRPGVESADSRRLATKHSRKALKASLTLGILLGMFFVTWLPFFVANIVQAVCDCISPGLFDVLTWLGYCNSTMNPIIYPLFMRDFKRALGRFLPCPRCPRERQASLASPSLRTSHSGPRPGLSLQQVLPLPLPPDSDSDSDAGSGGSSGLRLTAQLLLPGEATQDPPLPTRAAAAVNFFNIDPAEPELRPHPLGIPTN

`CNCCOc1cccc2c1n(C)c(=O)n2Cc1ccccc1` (as salt: hydrochloride) returned a melting point of 203.8 to 205.1 °C.

`O=c1[nH]c2c(N3CCNCC3)ccc(Cl)c2n1Cc1cccc(F)c1` [7-Chloro-1-(3-fluoro-benzyl)-4-piperazin-1-yl-1,3-dihydro-benzoimidazol-2-one]: the Ki in series [1] was roughly 0.331 nM.

`O=c1[nH]c2c(OC3CNC3)cccc2n1Cc1ccccc1`: the melting point lay in the range of 181 to 184 °C.

`O=c1[nH]c2c(OCC3CNC3)cccc2n1Cc1ccccc1` (as salt: hydrochloride) returned a melting point of 210 to 216.6 °C.

Turning to `O=C1Cc2c(N3CCNCC3)cccc2N1Cc1ccc(F)c(F)c1` [1-(3,4-Difluoro-benzyl)-4-piperazin-1-yl-1,3-dihydro-indol-2-one], the Ki in series [2] is roughly 0.331 nM.
